Reference: US6297230A, “Cyanoaziridines for treating cancer” (priority 2000, dated 2001)
pIC50: −log10 of the molar value. Converted amounts (≈) assume the structure as drawn. Like-named read-outs stand apart in the source and are kept apart here.

Columns and labels:
8226/S myeloma cells = test: MTT growth inhibition, parental 8226 myeloma cells; assay type: cell-based, human
Description: (§1) Microculture Tetrazolium (MTT) Assay for Tumor Cells
(§2) Tumors are disaggregated into single cell suspensions using mechanical, hypoosmotic, and/or enzymatic (trypsin) methods. The cells are plated at a concentration of 3-5×10^4 per […] well into plastic 96-well plates. Growth medium containing 5-10% (vol/vol) heat-inactivated fetal bovine serum and penicillin/streptomycin (both […]) are added prior to incubation at 37° C. for 6 days. Afterwards the medium containing the drug is removed, the cells are centrifuged in fresh medium or phosphate-buffered saline (pH 7.4). A tetrazolium dye, […]-2,5-diphenyl tetrazolium (MTT), is then added. (Mossman, T., J Immunol 65:55-63, 1983.) This dye forms a colored formazan product upon activation by mitochondrial reductases in viable cells. Typically, the formazan product is solubilized in acid-propanol or DMSO. The intensity of the color is proportional to viable cell numbers and this is quantitated by spectrophotometric absorbance at 570 nm on a micro ELISA plate reader. The results are calibrated in % control absorbance from untreated tumor cells. (Alley, et al., Cancer Res 48:589-601, 1988.)
(§3) The following unpublished studies were performed in vitro to develop and characterize a human myeloma cell line with resistance to imexon-induced cytotoxicity. The original (parental) 8226 cell line was developed by Matsuoka, et al. (Matsuoka, et al., Proc Soc Exp Biol Med 125:1246-1250, 1967). It is a lymphoblastoid cell line which stains for lambda light immunoglobulin production. It grows in vitro in suspension culture (non-adherent) and forms tumors when injected into SCID mice. (Skehan, et al., J Natl Cancer Inst 82:1107-1112, 1990.)
(§4) One exciting feature of our novel compounds is, that they work on imexon-resistant cells. An imexon-resistant 8226 myeloma cell line was selected by continuously exposing cells to gradually increasing concentrations of imexon up to 3.25 mg/mL. This cell line has slightly longer cell doubling time than 8226 sensitive cells (24 vs 20 hours). […] The dose response curve for imexon continuous exposure was determined using MTT assay. Each data point represents the mean of three experiments performed in 8 replicates.
(§5) We compared IC50 concentrations and there is a 4-fold resistance observed for the 8226/I-R cell line when the cells were continuously exposed to imexon for […] at 37° C. The degree of resistance was relatively unstable in the absence of the drug, with the resistant cells losing substantial resistance when maintained in imexon-free medium for 20 weeks (FIG. 2).
(§6) IC50 was measured by MTT assay. IC50 refer to the concentration by drug that results in 50% growth inhibition. A minimum of 2 assays were performed for each drug following 250 mg/mL imexon is equivalent to 6.5 cGy radiation in sensitive cells.
(§7) Using the colorimetric microculture tetrazolium (MTT) assay, imexon and 25-related analogs were studied for tumor growth inhibition in vitro. Imexon-induced DNA single strand breaks were assessed by alkaline elution. Cells were exposed to imexon for 1 hour prior to start of experiment. The fraction of ^14 C-labeled DNA retained on the filter is plotted against the time of elution. The cells included parental 8226 myeloma cells and the 8226 imexon-resistant cells exposed to drug (imexon or analog) continuously for 10 days at 37° C. At the end of the exposure period, the cells were analyzed for viability using the formazan-forming tetrazolium dye (MTT) assay.

8226/I-R myeloma cells = test: MTT growth inhibition, imexon-resistant 8226 myeloma cells; assay type: cell-based, human; conditions: for Cross-resistance of imexon-resistant cells: 8226 imexon-resistant cells; for Fold Resistance of IC50 R/IC50 's: imexon-resistant vs sensitive 8226
Description: as §1, §2, §3, §4, §5, §6, §7

[1] = tested on: L-1210 MDR leukemia cells; conditions: cited from earlier work
[2] = tested on: OVCAR-3 ovarian carcinoma cells; conditions: clinically relevant concentrations in vitro; cited from earlier work
WiDr MITOX cells = conditions: cited from earlier work
[3] = tested on: L-1210 MDR leukemia cells; test: MTT growth inhibition, multidrug-resistant L-1210 leukemia cells; assay type: cell-based, mouse; conditions: for IC50: Mus musculus, L1210, 192 h
Description: as §2
In addition, the imexon analogs have also been tested in a multidrug-resistant (MDR) mouse L-1210 leukemia cell line.
L-1210 MDR Cells represent a multidrug-resistant cell line developed for resistance to the alkylating agent mitomycin C. (Dorr, et al., Biochem Pharmacol 36(19):3115-3120, 1987.) This cell line has the same general growth characteristics of the parental line, but is cross-resistant to numerous natural-product based anticancer agents. This includes anthracyclines such as doxorubicin (Adriamycin®) and vinca alkaloids such as vincristine or vinblastine.
(§8) *Drug continuously present for 8 days; IC50 measured by MTT dye

[4] = tested on: L-1210 leukemia cells (sensitive); test: MTT growth inhibition, sensitive L-1210 leukemia cells; assay type: cell-based, mouse; conditions: Mus musculus, L1210, 192 h
Description: as §2, with “1988.) […]” for “1988.)”
Murine L-1210 Leukemia Cells were first described by Law, et al. from a female DBA/2 mouse exposed to topical methylcholanthrene. (Law, et al., J Natl Cancer Inst 10:179-192, 1949.) The cells represent a lymphocytic lineage and are highly tumorigenic in syngeneic DBA/2 mice, producing lethality typically 10-14 days after inoculation. This cell line has been used extensively to characterize the antitumor activity of chemotherapeutic agents. (Goldin, et al., Cancer Res (Cancer Chemotherapy Screening Data IX) 21:27-92, 1961.) The L-1210 cells have a model 40-41 chromosomes and a very high plating efficiency in suspension cultures in vitro.
as §8

[5] = Homo sapiens, 8226/S, MTT, read-out: IC50
[6] = Homo sapiens, 8226/I-R, MTT, read-out: IC50
[7] = Homo sapiens, Table 5, Sensitive (parental) 8226, read-out: IC50
[8] = Homo sapiens, Table 5, imexon-resistant 8226, read-out: IC50

## N.N.O=C([O-])C1(C(=O)[O-])CCC1.[Pt+2] [Carboplatin, reference compound]
8226/S myeloma cells; 8226/S, MTT, read-out: IC50
  pIC50: 5.01
8226/I-R myeloma cells; 8226/I-R, MTT, read-out: IC50
  pIC50: 4.80
8226/I-R myeloma cells; MTT
  Cross-resistance of imexon-resistant cells: partial cross-resistance
8226/I-R myeloma cells; Table 4, 8226/I-R vs 8226/S
  Fold Resistance (IC50 resistant cells/IC50 sensitive cells): 1.65

## CC[C@]1(O)C[C@@H]2CN(CCc3c([nH]c4ccccc34)[C@@](C(=O)OC)(c3cc4c(cc3OC)N(C)[C@H]3[C@@](O)(C(=O)OC)[C@H](OC(C)=O)[C@]5(CC)C=CCN6CC[C@]43[C@@H]65)C2)C1 [vinblastine]
[1]
  Cross-resistance of L-1210 MDR: cross-resistant

## N[C@@H](Cc1ccc(N(CCCl)CCCl)cc1)C(=O)O [Melphalan, reference compound]
8226/S myeloma cells; Homo sapiens
  pIC50: 7.21
[2]
  Resistance of OVCAR-3: resistant in vitro to clinically relevant concentrations
8226/I-R myeloma cells; Homo sapiens
  pIC50: 5.28
8226/I-R myeloma cells; Table 4, 8226/I-R vs 8226/S
  Fold Resistance (IC50 resistant cells/IC50 sensitive cells): 0.81

## CO[C@@]12[C@H](COC(N)=O)C3=C(C(=O)C(C)=C(N)C3=O)N1C[C@@H]1N[C@@H]12 [Mitomycin C, reference compound]
8226/S myeloma cells; [5]
  pIC50: 7.18
8226/I-R myeloma cells; MTT
  Cross-resistance of imexon-resistant cells: partial resistance
8226/I-R myeloma cells; [6]
  pIC50: 7.00
8226/I-R myeloma cells; human, 8226 myeloma cells
  Fold Resistance (IC50 resistant cells/IC50 sensitive cells): 1.50

## CC[C@]1(O)C[C@H]2CN(CCc3c([nH]c4ccccc34)[C@@](C(=O)OC)(c3cc4c(cc3OC)N(C=O)[C@H]3[C@@](O)(C(=O)OC)[C@H](OC(C)=O)[C@]5(CC)C=CCN6CC[C@]43[C@@H]65)C2)C1 [Vincristine, reference compound]
8226/S myeloma cells; [5]
  pIC50: 8.55
[1]
  Cross-resistance of L-1210 MDR: cross-resistant
WiDr MITOX cells
  Fold resistance of WiDr MITOX cells: 2 fold
8226/I-R myeloma cells; MTT
  Cross-resistance of imexon-resistant cells: remains sensitive
8226/I-R myeloma cells; [6]
  pIC50: 8.62
8226/I-R myeloma cells; Table 4, 8226/I-R vs 8226/S
  Fold Resistance (IC50 resistant cells/IC50 sensitive cells): 0.88

## Bleomycin [reference compound]
8226/S myeloma cells; 8226/S, MTT, bleomycin
  IC50: 7.0 µg/mL
8226/I-R myeloma cells; 8226/I-R, MTT, bleomycin
  IC50: 7.8 µg/mL
8226/I-R myeloma cells; MTT
  Cross-resistance of imexon-resistant cells: remains sensitive
8226/I-R myeloma cells; Table 4, 8226/I-R vs 8226/S
  Fold Resistance (IC50 resistant cells/IC50 sensitive cells): 1.11

## N#CC1CN1C(N)=O (centres unmarked) [AMP 409, 2-cyanoaziridine-1-carboxamide, reference compound]
[3]
  IC50: > 10 µg/mL
8226/S myeloma cells; [7]
  IC50: 32 µg/mL
[4]
  IC50: > 10 µg/mL
8226/I-R myeloma cells; [8]
  IC50: 48 µg/mL
8226/I-R myeloma cells; Table 5
  Fold Resistance of IC50 R/IC50 's: 1.5

## N#CC1CN1C(=O)Nc1ccc(Cl)c(Cl)c1 (centres unmarked) [AMP 408, 2-Cyanoaziridine-1-[N-(3,4-dichlorophenyl)]carboxamide]
[3]; L-1210 MDR vs sensitive, 11520 min
  Fold Resistance of IC50 's (MDR/S): 2.7
[3]; MDR L-1210, drug continuously present 8 days, read-out: IC50
  IC50: 1.9 µg/mL (≈ 7.42 µM)
8226/S myeloma cells; [7]
  IC50: 0.27 µg/mL
8226/S myeloma cells; compared with imexon
  Enhanced potency: decrease in IC50 against myeloma cell growth: > 40%
[4]; Sensitive L-1210, drug continuously present 8 days, read-out: IC50
  IC50: 0.7 µg/mL (≈ 2.73 µM)
8226/I-R myeloma cells; [8]
  IC50: 0.68 µg/mL
8226/I-R myeloma cells; Table 5
  Fold Resistance of IC50 R/IC50 's: 2.5

## N.N.[Cl][Pt][Cl] [Cisplatin, reference compound]
8226/S myeloma cells; 8226/S, MTT, read-out: IC50
  pIC50: 5.96
[2]
  Resistance of OVCAR-3: resistant in vitro to clinically relevant concentrations
8226/I-R myeloma cells; 8226/I-R, MTT, read-out: IC50
  pIC50: 5.70
8226/I-R myeloma cells; MTT
  Cross-resistance of imexon-resistant cells: partial cross-resistance
8226/I-R myeloma cells; Table 4, 8226/I-R vs 8226/S
  Fold Resistance (IC50 resistant cells/IC50 sensitive cells): 1.85

## O=C1c2c(O)ccc(O)c2C(=O)c2c(NCCNCCO)ccc(NCCNCCO)c21 [mitoxantrone]
WiDr MITOX cells
  Fold resistance of WiDr MITOX cells: 21 fold
